Assay results from patent publication US6737383B1, “Herbicidal oxadiazolidines” (priority 1999, dated 2004).

Legend:
[1] = system: blackgrass; experiment: Test B pre/postemergence blackgrass; assay type: in vivo, Alopecurus myosuroides
Procedure, shortened: (§1)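 Test chemicals in a non-phytotoxic solvent mixture with surfactant were sprayed preemergence onto planted seeds and postemergence onto plants 2 to 18 cm tall (1- to 4-leaf stage). After twelve to sixteen days in a greenhouse, injury was visually rated against untreated controls from 0 (no effect) to 10 (complete control).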

[2] = system: surinam grass; experiment: Test B pre/postemergence surinam grass; assay type: in vivo, Brachiaria decumbens
Procedure, shortened: as §1

[3] = system: cocklebur; experiment: Test B pre/postemergence cocklebur; assay type: in vivo, Xanthium strumarium
Procedure, shortened: as §1

[4] = system: corn; experiment: Test B pre/postemergence corn; assay type: in vivo, Zea mays
Procedure, shortened: as §1

[5] = system: crabgrass; experiment: Test B pre/postemergence crabgrass; assay type: in vivo, Digitaria sanguinalis
Procedure, shortened: as §1

[6] = system: giant foxtail; experiment: Test B pre/postemergence giant foxtail; assay type: in vivo, Setaria faberii
Procedure, shortened: as §1

[7] = system: morningglory; experiment: Test B pre/postemergence morningglory; assay type: in vivo, Ipomoea hederacea
Procedure, shortened: as §1

[8] = system: pigweed; experiment: Test B pre/postemergence pigweed; assay type: in vivo, Amaranthus retroflexus
Procedure, shortened: as §1

[9] = system: rape; experiment: Test B pre/postemergence rape; assay type: in vivo, Brassica napus
Procedure, shortened: as §1

[10] = system: soybean; experiment: Test B pre/postemergence soybean; assay type: in vivo, Glycine max
Procedure, shortened: as §1

[11] = system: sugar beet; experiment: Test B pre/postemergence sugar beet; assay type: in vivo, Beta vulgaris
Procedure, shortened: as §1

[12] = system: velvetleaf; experiment: Test B pre/postemergence velvetleaf; assay type: in vivo, Abutilon theophrasti
Procedure, shortened: as §1

[13] = system: wild oat; experiment: Test B pre/postemergence wild oat; assay type: in vivo, Avena fatua
Procedure, shortened: as §1

[14] = system: purple nutsedge; experiment: Test B pre/postemergence purple nutsedge; assay type: in vivo, Cyperus rotundus
Procedure, shortened: as §1

[15] = system: smallflower flatsedge; experiment: Test B flood test smallflower flatsedge; assay type: in vivo, Cyperus difformis
Procedure, shortened: (§2)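 Each value is a visual injury score relative to controls, with 10 meaning complete control and 0 no effect. Evaluation took place twelve to sixteen days after the 2-leaf-stage plants were treated and kept in the greenhouse.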

[16] = system: bamyardgrass; experiment: Test B flood test barnyardgrass; assay type: in vivo, Echinochloa crus-galli
Procedure, shortened: as §2

[17] = Postemergence, Rate 62 g/ha, scale of 0 to 10, 0 is no effect, 10 is complete control
[18] = Postemergence, Rate 125 g/ha, scale 0 to 10, 0 is no effect, 10 is complete control
[19] = Postemergence, Rate 500 g/ha, scale of 0 to 10 where 0 is no effect and 10 is complete control
[20] = Preemergence, Rate 62 g/ha, scale 0 to 10 (0 no effect, 10 complete control)
[21] = Preemergence, Rate 125 g/ha, scale 0 to 10, 0 is no effect, 10 is complete control
[22] = Preemergence, Rate 500 g/ha, scale of 0 to 10 where 0 is no effect and 10 is complete control
[23] = Rate 250 g/ha, Postemergence, scale of 0 to 10 where 0 is no effect and 10 is complete control
[24] = Rate 62 g/ha, flood test species, Pre-emergence, visual evaluation after twelve to sixteen days
[25] = Rate 125 g/ha, under heading Pre-emergence, flood test species, visual evaluation after twelve to sixteen days
[26] = Rate 250 g/ha, Pre-emergence (flood test species), scale 0 to 10, 0 is no effect, 10 is complete control
[27] = Rate 500 g/ha, Pre-emergence section of Table B, 0 to 10 scale (0 no effect, 10 complete control)

## CC(C)N(C(=O)n1oc(=O)n(CCC2OCCO2)c1=O)c1ccccc1 [Compound 560]
[1]; [17]
  Blackgrass plant response rating: 2
[1]; [18]
  Blackgrass plant response rating: 5
[1]; [19]
  Plant response rating, Blackgrass: 7
[1]; [20]
  Blackgrass plant response rating: 4
[1]; [21]
  Blackgrass plant response rating: 6
[1]; Preemergence, Rate 250 g/ha
  Blackgrass plant response rating (0 to 10 scale): 9
[1]; [22]
  Blackgrass plant response rating: 9
[1]; [23]
  Plant response rating, Blackgrass: 7
[2]; [17]
  B. signalgrass plant response rating: 0
[2]; [18]
  B. signalgrass plant response rating: 3
[2]; [19]
  Plant response rating, B. signalgrass: 7
[2]; [20]
  B. signalgrass plant response rating: 4
[2]; [21]
  B. signalgrass plant response rating: 7
[2]; Preemergence, Rate 250 g/ha
  B. signalgrass plant response rating (0 to 10 scale, 0 is no effect, 10 is complete control): 7
[2]; [22]
  B. signalgrass plant response rating: 9
[2]; [23]
  Plant response rating, B. signalgrass: 6
[3]; [17]
  Cocklebur plant response rating: 0
[3]; [18]
  Cocklebur plant response rating: 0
[3]; [19]
  Plant response rating, Cocklebur: 0
[3]; [20]
  Cocklebur plant response rating: 0
[3]; [21]
  Cocklebur plant response rating: 0
[3]; Preemergence, Rate 250 g/ha
  Cocklebur plant response rating (0 to 10 scale): 0
[3]; [22]
  Cocklebur plant response rating: 0
[3]; [23]
  Plant response rating, Cocklebur: 0
[4]; [17]
  Corn plant response rating: 0
[4]; [18]
  Corn plant response rating: 0
[4]; [19]
  Plant response rating, Corn: 4
[4]; [20]
  Corn plant response rating: 0
[4]; [21]
  Corn plant response rating: 0
[4]; Preemergence, Rate 250 g/ha
  Corn plant response rating (0 to 10 scale): 5
[4]; [22]
  Corn plant response rating: 5
[4]; [23]
  Plant response rating, Corn: 2
[5]; [17]
  Crabgrass plant response rating: 0
[5]; [18]
  Crabgrass plant response rating: 4
[5]; [19]
  Plant response rating, Crabgrass: 8
[5]; [20]
  Crabgrass plant response rating: 9
[5]; [21]
  Crabgrass plant response rating: 9
[5]; Preemergence, Rate 250 g/ha
  Crabgrass plant response rating (0 to 10 scale): 9
[5]; [22]
  Crabgrass plant response rating: 10
[5]; [23]
  Plant response rating, Crabgrass: 3
[6]; [17]
  Giant foxtail plant response rating: 2
[6]; [18]
  Giant foxtail plant response rating: 7
[6]; [19]
  Plant response rating, Giant foxtail: 8
[6]; [20]
  Giant foxtail plant response rating: 10
[6]; [21]
  Giant foxtail plant response rating: 10
[6]; Preemergence, Rate 250 g/ha
  Giant foxtail plant response rating (0 to 10 scale): 10
[6]; [22]
  Giant foxtail plant response rating: 10
[6]; [23]
  Plant response rating, Giant foxtail: 7
[7]; [17]
  Morningglory plant response rating: 4
[7]; [18]
  Morningglory plant response rating: 7
[7]; [19]
  Plant response rating, Morningglory: 10
[7]; [20]
  Morningglory plant response rating: 0
[7]; [21]
  Morningglory plant response rating: 0
[7]; Preemergence, Rate 250 g/ha
  Morningglory plant response rating (0 to 10 scale): 3
[7]; [22]
  Morningglory plant response rating: 3
[7]; [23]
  Plant response rating, Morningglory: 9
[8]; [17]
  Redroot pigweed plant response rating: 2
[8]; [19]
  Plant response rating, Redroot pigweed: 9
[8]; [20]
  Redroot pigweed plant response rating: 3
[8]; [21]
  Redroot pigweed plant response rating: 8
[8]; Preemergence, Rate 250 g/ha
  Redroot pigweed plant response rating (0 to 10 scale): 9
[8]; [22]
  Redroot pigweed plant response rating: 9
[8]; [23]
  Plant response rating, Redroot pigweed: 8
[9]; [17]
  Rape plant response rating: 0
[9]; [19]
  Plant response rating, Rape: 7
[9]; [20]
  Rape plant response rating: 0
[9]; [21]
  Rape plant response rating: 3
[9]; Preemergence, Rate 250 g/ha
  Rape plant response rating (0 to 10 scale): 7
[9]; [22]
  Rape plant response rating: 8
[9]; [23]
  Plant response rating, Rape: 4
[10]; [17]
  Soybean plant response rating: 2
[10]; [19]
  Plant response rating, Soybean: 3
[10]; [20]
  Soybean plant response rating: 0
[10]; [21]
  Soybean plant response rating: 0
[10]; Preemergence, Rate 250 g/ha
  Soybean plant response rating (0 to 10 scale): 1
[10]; [22]
  Soybean plant response rating: 3
[10]; [23]
  Plant response rating, Soybean: 2
[11]; [17]
  Sugarbeets plant response rating: 0
[11]; [19]
  Plant response rating, Sugarbeets: 6
[11]; [20]
  Sugarbeets plant response rating: 0
[11]; [21]
  Sugarbeets plant response rating: 0
[11]; Preemergence, Rate 250 g/ha
  Sugarbeets plant response rating (0 to 10 scale): 3
[11]; [22]
  Sugarbeets plant response rating: 7
[11]; [23]
  Plant response rating, Sugarbeets: 0
[12]; [17]
  Velvetleaf plant response rating: 0
[12]; [19]
  Plant response rating, Velvetleaf: 0
[12]; [20]
  Velvetleaf plant response rating: 0
[12]; [21]
  Velvetleaf plant response rating: 2
[12]; Preemergence, Rate 250 g/ha
  Velvetleaf plant response rating (0 to 10 scale): 2
[12]; [22]
  Velvetleaf plant response rating: 5
[12]; [23]
  Plant response rating, Velvetleaf: 0
[13]; [17]
  Wild oats plant response rating: 0
[13]; [19]
  Plant response rating, Wild oats: 2
[13]; [20]
  Wild oats plant response rating: 0
[13]; [21]
  Wild oats plant response rating: 0
[13]; Preemergence, Rate 250 g/ha
  Wild oats plant response rating (0 to 10 scale): 5
[13]; [22]
  Wild oats plant response rating: 7
[13]; [23]
  Plant response rating, Wild oats: 2
[14]; [17]
  Nutsedge plant response rating: 3
[14]; [18]
  Nutsedge plant response rating: 3
[14]; [19]
  Plant response rating, Nutsedge: 5
[14]; [20]
  Nutsedge plant response rating: 0
[14]; [21]
  Nutsedge plant response rating: 3
[14]; Preemergence, Rate 250 g/ha
  Nutsedge plant response rating (0 to 10 scale): 7
[14]; [22]
  Nutsedge plant response rating: 10
[14]; [23]
  Plant response rating, Nutsedge: 3
[15]; [24]
  Plant response rating, S. Flatsedge (0 to 10 scale, 0 is no effect, 10 is complete control): 0
[15]; [25]
  S. Flatsedge plant response rating (0 to 10 scale, 0 is no effect, 10 is complete control): 0
[15]; [26]
  S. Flatsedge plant response rating: 0
[15]; [27]
  S. Flatsedge plant response rating: 0
[16]; [24]
  Plant response rating, Barnyardgrass (0 to 10 scale, 0 is no effect, 10 is complete control): 0
[16]; [25]
  Barnyardgrass plant response rating (0 to 10 scale, 0 is no effect, 10 is complete control): 0
[16]; [26]
  Barnyardgrass plant response rating: 0
[16]; [27]
  Barnyardgrass plant response rating: 0
